What all share (type): binding
Assay [1] addresses kinases (KINOMEscan panel) (Homo sapiens, UniProt P54764). The note with it: EPHA4; NEW KINOMEscan.
The target in assay [2] is kinases (KINOMEscan panel) (Homo sapiens, UniProt Q00526). The note with it: CDK3; NEW KINOMEscan.
Assay [3] addresses kinases (KINOMEscan panel) (Homo sapiens, UniProt P43405). The note with it: SYK; NEW KINOMEscan.
For assay [4], the target named is kinases (KINOMEscan panel) (Homo sapiens, UniProt Q15375). Conditions: EPHA7; NEW KINOMEscan.
Assay [5] has as its target kinases (KINOMEscan panel) (Plasmodium falciparum, UniProt P61075). The note with it: PFPK5(P.falciparum); NEW KINOMEscan.
In assay [6] the target is kinases (KINOMEscan panel) (Homo sapiens, UniProt O60331). Conditions: PIP5K1C; NEW KINOMEscan.
In assay [7] the target is kinases (KINOMEscan panel) (Homo sapiens, UniProt P00519, Y253F). Conditions: kinase ABL1(Y253F)-phosphorylated; NEW KINOMEscan.
Assay [8] addresses kinases (KINOMEscan panel) (Homo sapiens, UniProt O96013). Conditions: PAK4; NEW KINOMEscan.
In assay [9] the target is kinases (KINOMEscan panel) (Homo sapiens, UniProt P07333). The note with it: NEW KINOMEscan.
Assay [10] addresses kinases (KINOMEscan panel) (Homo sapiens, UniProt P51451). The note with it: kinase BLK; NEW KINOMEscan.
Assay [11] deals with kinases (KINOMEscan panel) (Homo sapiens, UniProt P49760). Conditions: kinase CLK2; NEW KINOMEscan.
Assay [12] addresses kinases (KINOMEscan panel) (Homo sapiens, UniProt P00533, L858R/T790M). The note with it: NEW KINOMEscan.
Assay [13] addresses kinases (KINOMEscan panel) (Homo sapiens, UniProt P42336, H1047Y). Conditions: kinase PIK3CA(H1047Y); NEW KINOMEscan.
Assay [14] deals with T1, kinases (KINOMEscan panel) (Homo sapiens, UniProt Q8WXR4).
T1 sequence (Q8WXR4 1-1341): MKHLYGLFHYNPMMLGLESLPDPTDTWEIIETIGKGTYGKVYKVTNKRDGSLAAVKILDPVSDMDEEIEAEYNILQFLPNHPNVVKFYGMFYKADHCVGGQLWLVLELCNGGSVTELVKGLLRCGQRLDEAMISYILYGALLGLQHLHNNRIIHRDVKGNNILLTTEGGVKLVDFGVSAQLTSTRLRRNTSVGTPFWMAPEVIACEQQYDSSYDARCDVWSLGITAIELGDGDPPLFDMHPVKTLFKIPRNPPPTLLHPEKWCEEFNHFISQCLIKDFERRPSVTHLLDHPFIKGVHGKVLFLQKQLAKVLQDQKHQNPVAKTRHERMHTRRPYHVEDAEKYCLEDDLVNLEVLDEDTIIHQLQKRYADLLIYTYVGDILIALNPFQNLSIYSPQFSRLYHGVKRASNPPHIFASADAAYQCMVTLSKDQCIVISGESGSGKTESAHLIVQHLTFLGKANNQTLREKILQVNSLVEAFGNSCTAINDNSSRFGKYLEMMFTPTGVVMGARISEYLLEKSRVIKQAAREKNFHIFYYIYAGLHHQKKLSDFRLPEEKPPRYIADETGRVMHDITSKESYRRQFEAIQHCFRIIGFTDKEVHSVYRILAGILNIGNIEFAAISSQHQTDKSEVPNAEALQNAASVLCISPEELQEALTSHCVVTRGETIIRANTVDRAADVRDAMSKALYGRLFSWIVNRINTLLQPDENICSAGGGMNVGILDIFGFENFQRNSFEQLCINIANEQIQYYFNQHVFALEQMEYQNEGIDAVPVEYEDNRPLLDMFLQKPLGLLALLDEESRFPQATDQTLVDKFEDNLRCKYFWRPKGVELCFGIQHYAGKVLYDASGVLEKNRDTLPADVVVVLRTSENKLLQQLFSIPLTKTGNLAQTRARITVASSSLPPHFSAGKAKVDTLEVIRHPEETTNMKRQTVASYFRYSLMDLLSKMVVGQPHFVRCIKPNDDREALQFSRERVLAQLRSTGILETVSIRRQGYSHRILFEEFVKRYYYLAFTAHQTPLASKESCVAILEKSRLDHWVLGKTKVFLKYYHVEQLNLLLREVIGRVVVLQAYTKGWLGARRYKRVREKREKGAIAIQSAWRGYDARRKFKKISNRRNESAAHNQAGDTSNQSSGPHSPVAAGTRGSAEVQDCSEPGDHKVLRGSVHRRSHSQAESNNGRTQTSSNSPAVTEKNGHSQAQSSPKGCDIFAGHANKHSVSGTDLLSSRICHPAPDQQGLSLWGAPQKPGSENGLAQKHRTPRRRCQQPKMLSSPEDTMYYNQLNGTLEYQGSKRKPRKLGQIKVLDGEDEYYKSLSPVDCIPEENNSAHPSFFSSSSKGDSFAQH
The note with it: MYO3B; NEW KINOMEscan.

kinases (KINOMEscan panel) (Homo sapiens, UniProt P07333), sequence (P07333 20-972): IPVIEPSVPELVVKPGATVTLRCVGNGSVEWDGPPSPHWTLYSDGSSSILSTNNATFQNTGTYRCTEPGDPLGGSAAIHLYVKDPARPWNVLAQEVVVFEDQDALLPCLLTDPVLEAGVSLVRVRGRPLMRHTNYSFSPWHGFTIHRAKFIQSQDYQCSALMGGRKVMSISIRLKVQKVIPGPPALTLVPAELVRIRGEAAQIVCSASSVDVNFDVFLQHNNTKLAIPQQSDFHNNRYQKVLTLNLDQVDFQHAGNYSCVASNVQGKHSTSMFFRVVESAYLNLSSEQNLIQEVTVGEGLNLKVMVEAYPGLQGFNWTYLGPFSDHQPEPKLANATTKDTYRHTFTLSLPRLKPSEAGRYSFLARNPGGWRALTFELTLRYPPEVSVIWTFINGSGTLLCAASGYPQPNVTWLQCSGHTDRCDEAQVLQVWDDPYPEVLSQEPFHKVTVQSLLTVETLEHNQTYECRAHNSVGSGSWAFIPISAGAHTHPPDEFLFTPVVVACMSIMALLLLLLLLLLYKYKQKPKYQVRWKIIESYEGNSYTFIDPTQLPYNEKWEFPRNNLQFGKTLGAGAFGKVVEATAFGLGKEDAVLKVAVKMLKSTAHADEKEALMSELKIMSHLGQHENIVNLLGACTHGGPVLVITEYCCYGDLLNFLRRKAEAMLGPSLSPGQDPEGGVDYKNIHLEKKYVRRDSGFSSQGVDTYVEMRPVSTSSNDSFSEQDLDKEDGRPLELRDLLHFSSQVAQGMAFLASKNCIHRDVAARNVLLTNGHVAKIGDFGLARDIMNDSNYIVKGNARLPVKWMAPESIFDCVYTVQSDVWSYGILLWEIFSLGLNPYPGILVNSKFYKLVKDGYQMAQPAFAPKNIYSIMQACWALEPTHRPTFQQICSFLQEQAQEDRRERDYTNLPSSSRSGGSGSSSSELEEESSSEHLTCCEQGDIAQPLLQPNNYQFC
kinases (KINOMEscan panel) (Homo sapiens, UniProt P49760), sequence (P49760 whole entry): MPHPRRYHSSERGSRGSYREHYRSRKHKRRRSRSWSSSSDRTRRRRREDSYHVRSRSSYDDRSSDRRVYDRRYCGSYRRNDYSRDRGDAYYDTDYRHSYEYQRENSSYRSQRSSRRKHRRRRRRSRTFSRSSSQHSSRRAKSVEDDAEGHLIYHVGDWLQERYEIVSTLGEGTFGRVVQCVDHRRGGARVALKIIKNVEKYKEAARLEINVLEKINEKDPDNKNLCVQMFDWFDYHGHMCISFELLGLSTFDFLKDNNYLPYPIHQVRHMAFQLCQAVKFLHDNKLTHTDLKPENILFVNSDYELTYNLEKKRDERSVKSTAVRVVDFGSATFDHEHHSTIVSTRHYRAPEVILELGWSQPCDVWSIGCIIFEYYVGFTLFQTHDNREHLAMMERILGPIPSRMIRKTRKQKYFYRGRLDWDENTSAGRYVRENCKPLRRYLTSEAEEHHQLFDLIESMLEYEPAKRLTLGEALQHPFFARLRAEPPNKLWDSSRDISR
kinases (KINOMEscan panel) (Homo sapiens, UniProt P51451), sequence (P51451 whole entry): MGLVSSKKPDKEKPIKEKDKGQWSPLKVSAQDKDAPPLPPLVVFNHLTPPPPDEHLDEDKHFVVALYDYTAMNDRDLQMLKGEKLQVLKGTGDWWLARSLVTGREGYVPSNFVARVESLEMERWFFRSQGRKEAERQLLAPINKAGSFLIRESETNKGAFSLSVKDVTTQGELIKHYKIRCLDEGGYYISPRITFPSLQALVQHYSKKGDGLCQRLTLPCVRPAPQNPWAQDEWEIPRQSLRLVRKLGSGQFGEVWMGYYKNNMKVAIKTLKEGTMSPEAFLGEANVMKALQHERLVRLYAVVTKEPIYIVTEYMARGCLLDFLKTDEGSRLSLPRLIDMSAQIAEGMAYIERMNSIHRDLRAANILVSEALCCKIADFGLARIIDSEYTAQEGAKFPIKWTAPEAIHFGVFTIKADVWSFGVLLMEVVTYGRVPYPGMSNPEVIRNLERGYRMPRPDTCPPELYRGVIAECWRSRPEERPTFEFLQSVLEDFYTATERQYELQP
kinases (KINOMEscan panel) (Homo sapiens, UniProt O96013), sequence (O96013 whole entry): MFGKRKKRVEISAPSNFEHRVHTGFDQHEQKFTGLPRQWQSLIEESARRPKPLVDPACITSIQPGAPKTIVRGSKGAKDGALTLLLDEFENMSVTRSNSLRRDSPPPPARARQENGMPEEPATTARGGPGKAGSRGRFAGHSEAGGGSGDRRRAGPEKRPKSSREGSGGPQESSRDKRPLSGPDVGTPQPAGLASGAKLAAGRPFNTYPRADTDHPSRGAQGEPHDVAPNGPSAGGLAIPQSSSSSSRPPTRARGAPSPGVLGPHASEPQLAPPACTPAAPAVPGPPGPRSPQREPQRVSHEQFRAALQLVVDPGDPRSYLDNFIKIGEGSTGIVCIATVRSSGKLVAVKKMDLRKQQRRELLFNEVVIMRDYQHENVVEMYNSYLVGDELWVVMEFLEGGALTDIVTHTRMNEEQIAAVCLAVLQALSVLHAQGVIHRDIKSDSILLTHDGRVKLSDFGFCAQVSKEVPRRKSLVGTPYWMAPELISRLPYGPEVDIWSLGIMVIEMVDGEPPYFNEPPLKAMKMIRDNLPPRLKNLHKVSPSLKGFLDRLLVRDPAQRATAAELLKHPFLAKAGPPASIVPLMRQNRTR
kinases (KINOMEscan panel) (Homo sapiens, UniProt O60331), sequence (O60331 whole entry): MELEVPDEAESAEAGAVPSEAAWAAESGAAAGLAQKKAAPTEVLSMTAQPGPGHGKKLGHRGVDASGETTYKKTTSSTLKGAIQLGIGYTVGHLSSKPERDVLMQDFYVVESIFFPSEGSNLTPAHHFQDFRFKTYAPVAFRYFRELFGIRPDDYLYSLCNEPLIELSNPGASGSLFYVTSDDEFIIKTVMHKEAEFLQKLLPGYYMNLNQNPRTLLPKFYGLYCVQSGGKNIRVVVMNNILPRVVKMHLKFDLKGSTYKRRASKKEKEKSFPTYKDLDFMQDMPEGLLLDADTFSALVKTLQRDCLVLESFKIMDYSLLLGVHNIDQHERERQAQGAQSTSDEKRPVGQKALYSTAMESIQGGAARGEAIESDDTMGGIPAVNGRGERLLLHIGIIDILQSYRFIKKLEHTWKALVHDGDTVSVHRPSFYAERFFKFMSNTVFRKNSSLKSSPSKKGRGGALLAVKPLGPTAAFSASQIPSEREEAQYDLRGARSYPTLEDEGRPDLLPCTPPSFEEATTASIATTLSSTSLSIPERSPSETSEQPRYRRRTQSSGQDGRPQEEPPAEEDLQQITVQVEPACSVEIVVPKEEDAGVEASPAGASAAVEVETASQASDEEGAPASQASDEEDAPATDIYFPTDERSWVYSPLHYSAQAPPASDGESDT
kinases (KINOMEscan panel) (Homo sapiens, UniProt P42336, H1047Y), sequence (P42336 whole entry H1047Y): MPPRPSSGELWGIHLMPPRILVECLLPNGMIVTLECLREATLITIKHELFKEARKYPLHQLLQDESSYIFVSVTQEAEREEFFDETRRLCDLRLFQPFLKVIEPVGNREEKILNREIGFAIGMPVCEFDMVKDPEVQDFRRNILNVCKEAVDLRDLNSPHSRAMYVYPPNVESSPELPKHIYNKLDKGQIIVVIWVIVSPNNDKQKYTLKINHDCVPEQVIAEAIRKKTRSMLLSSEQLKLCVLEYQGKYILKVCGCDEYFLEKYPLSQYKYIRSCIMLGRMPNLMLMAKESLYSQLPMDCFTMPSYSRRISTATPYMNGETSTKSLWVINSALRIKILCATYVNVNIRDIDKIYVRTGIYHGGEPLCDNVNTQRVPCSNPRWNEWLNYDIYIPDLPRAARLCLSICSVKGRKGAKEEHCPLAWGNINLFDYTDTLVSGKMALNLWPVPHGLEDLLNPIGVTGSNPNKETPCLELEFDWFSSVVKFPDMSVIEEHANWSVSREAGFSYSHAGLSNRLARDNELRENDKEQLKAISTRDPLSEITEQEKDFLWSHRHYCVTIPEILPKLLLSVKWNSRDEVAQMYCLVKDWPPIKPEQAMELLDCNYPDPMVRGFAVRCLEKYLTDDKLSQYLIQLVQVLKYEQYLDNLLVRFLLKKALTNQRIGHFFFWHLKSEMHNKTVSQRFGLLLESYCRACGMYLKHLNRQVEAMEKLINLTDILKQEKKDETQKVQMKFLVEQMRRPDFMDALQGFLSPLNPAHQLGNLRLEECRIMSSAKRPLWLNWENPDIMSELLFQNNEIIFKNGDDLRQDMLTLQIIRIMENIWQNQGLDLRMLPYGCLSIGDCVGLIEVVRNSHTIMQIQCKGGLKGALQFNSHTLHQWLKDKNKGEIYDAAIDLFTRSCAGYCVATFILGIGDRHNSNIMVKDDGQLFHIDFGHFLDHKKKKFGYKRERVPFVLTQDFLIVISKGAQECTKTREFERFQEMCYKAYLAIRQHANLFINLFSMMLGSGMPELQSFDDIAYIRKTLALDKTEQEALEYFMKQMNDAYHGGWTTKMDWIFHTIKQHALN
kinases (KINOMEscan panel) (Homo sapiens, UniProt Q00526), sequence (Q00526 whole entry): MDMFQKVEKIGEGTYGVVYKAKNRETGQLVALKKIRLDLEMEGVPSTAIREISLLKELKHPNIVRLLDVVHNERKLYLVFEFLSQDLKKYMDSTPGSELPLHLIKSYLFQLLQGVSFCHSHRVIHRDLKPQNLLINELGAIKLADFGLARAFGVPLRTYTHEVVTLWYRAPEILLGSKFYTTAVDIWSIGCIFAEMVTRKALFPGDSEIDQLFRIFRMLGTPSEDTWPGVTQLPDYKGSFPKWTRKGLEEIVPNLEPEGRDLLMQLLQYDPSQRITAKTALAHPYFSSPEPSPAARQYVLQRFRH
kinases (KINOMEscan panel) (Plasmodium falciparum, UniProt P61075), sequence (P61075 whole entry): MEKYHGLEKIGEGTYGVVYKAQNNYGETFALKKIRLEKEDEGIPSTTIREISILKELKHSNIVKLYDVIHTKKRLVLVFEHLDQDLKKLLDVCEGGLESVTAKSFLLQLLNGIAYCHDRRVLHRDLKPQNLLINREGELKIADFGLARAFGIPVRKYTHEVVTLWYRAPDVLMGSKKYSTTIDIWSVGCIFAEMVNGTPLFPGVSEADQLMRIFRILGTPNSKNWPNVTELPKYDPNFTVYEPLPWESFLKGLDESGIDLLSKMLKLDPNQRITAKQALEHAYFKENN

On to `Cc1cccc(-c2nc(Nc3ccc4nn(C)cc4c3)c3ccccc3n2)n1` [NK167], for which the “KINOMEscan EPHA4” value in assay [1] was 0. In addition, the “KINOMEscan CDK3” value in assay [2] was determined as 0. Also, the “KINOMEscan SYK” value in assay [3] is 0. Further, in assay [4], the “KINOMEscan EPHA7” value turned out to be 0. In assay [5], the “KINOMEscan PFPK5(P.falciparum)” value worked out at 0. In addition, the “KINOMEscan PIP5K1C” value in assay [6] was found to be 18. Also, in assay [7], the “KINOMEscan ABL1(Y253F)-phosphorylated” value worked out at 0. Besides, the “KINOMEscan PAK4” value in assay [8] worked out at 0. For the same compound, in assay [9], the “KINOMEscan CSF1R” value amounted to 16 and the “KINOMEscan CSF1R-autoinhibited” value is recorded as 0. Also, the “KINOMEscan BLK” value in [10] amounted to 0. The “KINOMEscan CLK2” value in [11] came out at 0. For the same compound, the “KINOMEscan EGFR(L858R,T790M)” value in [12] is reported as 0. Further, in assay [13], the “KINOMEscan PIK3CA(H1047Y)” value stood at 0. The “KINOMEscan MYO3B” value in assay [14] came out at 0.
With `Cc1cccc(-c2nc(N(C)c3ccc4ncsc4c3)c3ccccc3n2)n1` [NK-161], the “KINOMEscan EPHA4” value in assay [1] was 5. Besides, the “KINOMEscan CDK3” value in [2] was found to be 0. Moreover, the “KINOMEscan SYK” value in assay [3] stood at 6. Also, the “KINOMEscan EPHA7” value in assay [4] stood at 0. Moreover, the “KINOMEscan PFPK5(P.falciparum)” value in assay [5] was 0. The “KINOMEscan PIP5K1C” value in assay [6] is recorded as 1. Further, in assay [7], the “KINOMEscan ABL1(Y253F)-phosphorylated” value was 0. In addition, the “KINOMEscan PAK4” value in [8] is on record as 0. In [9], the “KINOMEscan CSF1R” value is 18 and the “KINOMEscan CSF1R-autoinhibited” value is listed as 26. The “KINOMEscan BLK” value in [10] was determined as 0. Moreover, the “KINOMEscan CLK2” value in [11] is given as 0. Also, the “KINOMEscan EGFR(L858R,T790M)” value in [12] is on record as 10. For the same compound, the “KINOMEscan PIK3CA(H1047Y)” value in [13] was 4. The “KINOMEscan MYO3B” value in assay [14] stood at 1.
